Results: patent US20230277505A1 (Arena Pharmaceuticals, Inc., priority 2003, published 2023)
Where two headings read alike, the source gives them in different places.

Key:
[1] = system: DOI-induced hypolocomotion in rats; assay: Attenuation of DOI-induced hypolocomotion in rats; type: in vivo, rat; details: 50 μmol/kg p.o. 60 min before DOI 0.3 mg/kg s.c.
Procedure: In this example, compounds of the invention, such as Compound 1 and Compound 26, were tested for inverse agonist activity by determining whether these compounds could attenuate DOI-induced hypolocomotion in rats in a novel environment. DOI is a potent 5HT2A/2C receptor agonist that crosses the blood-brain barrier.
Male Sprague-Dawley rats (Harlan, San Diego, Calif.) weighing between 200-300 g were used for all tests. Rats were housed three to four per cage. These rats were naïve to experimental testing and drug treatment. Rats were handled one to three days before testing to acclimate them to experimental manipulation. Rats were fasted overnight prior to testing.
(R)-DOI HCl (C11H16INO2·HCl) was obtained from Sigma-Aldrich, and was dissolved in 0.9% saline. Compounds of the invention were synthesized at Arena Pharmaceuticals Inc. and were dissolved in 100% PEG400. […]
The “Motor Monitor” (Hamilton-Kinder, Poway, Calif.) was used for all activity measurement. This apparatus recorded rears using infrared photobeams. […]
In determining the effects of compounds of the invention on DOI-induced hypoactivity, animals were first injected with vehicle or the compound of the invention (50 μmol/kg) in their home cages. […] 10 min after DOI administration, animals were placed into the activity apparatus and rearing activity was measured for 10 minutes.
Results (total rears over 10 minutes) were analyzed by t-test. […]

[2] = Plasma drug concentration in the PET occupancy study; type: in vivo, rhesus monkey; details: 0.5 mg/kg i.v.; after 8 hours
Procedure: The monkey was anesthetized by using ketamine (10 mg/kg) and was maintained using 0.7 to 1.25% isoflurane. Typically, the monkey had two i.v. lines, one on each arm. One i.v. line was used to administer the radioligand, while the other line was used to draw blood samples for pharmacokinetic data of the radioligand as well as the cold drugs. Generally, rapid blood samples were taken as the radioligand is administered which then taper out by the end of the scan. A volume of approximately 1 ml of blood was taken per time point, which was spun down, and a portion of the plasma was counted for radioactivity in the blood.
The results of both an 8 hour and 24 hour study are shown. The test compound was administered via i.v. infusion in 5.0 ml of 80% PEG400. For the 8 hour study, venous blood samples were drawn at 5 minutes post Compound 1 and 15 minutes before PET scan. For the 24 hour study, venous blood samples were drawn at 5 minutes post Compound 1 and 10 minutes before PET scan.

[3] = target: 5HT2A receptor (Macaca mulatta (Rhesus macaque), UniProt P50128); assay: Serotonin 5-HT2A receptor occupancy study in monkey (PET, 18F-altanserin); type: in vivo; details: iv
[4] = system: male Wistar rats; assay: Effect on delta power, sleep and wakefulness in rats (EEG/EMG); type: in vivo, rat; details: oral gavage
Procedure: In this example, the effect of Compounds of the Invention, such as Compound 1 and Compound 26, on sleep and wakefulness was compared to the reference drug zolpidem. Drugs were administered during the middle of the light period (inactivity period).
Briefly, four compounds of the invention, including Compound 1 (1.0 mg/kg) and Compound 26 (1.4 mg/kg), were tested for their effects on sleep parameters and were compared to zolpidem (5.0 mg/kg, Sigma, St. Louis, Mo.) and vehicle control (80% Tween 80, Sigma, St. Louis, Mo.). A repeated measures design was employed in which each rat was to receive seven separate dosings via oral gavage. The first and seventh dosings were vehicle and the second through sixth were the test compounds and zolpidem given in counter-balanced order. Since all dosings were administered while the rats were connected to the recording apparatus, 60% CO2/40% O2 gas was employed for light sedation during the oral gavage process. Rats appeared fully recovered within 60 seconds following the procedure. A minimum of three days elapsed between dosings. […] Dosing typically occurred between 13:15 and 13:45 using a 24 hour notation. All dosing solutions were made fresh on the day of dosing. Following each dosing, animals were continuously recorded until lights out the following day (˜30 hours).
Animals were housed in a temperature controlled recording room under a 12/12 light/dark cycle (lights on at 7:00 am) and had food and water available ad libitum. Room temperature (24+2° C.), humidity (50+20% relative humidity) and lighting conditions were monitored continuously via computer. Drugs were administered via oral gavage as described above, with a minimum of three days between dosings. Animals were inspected daily in accordance with NIH guidelines. […]
EEG and EMG data were scored visually in 10 second epochs for waking (W), REMS, NREMS. Scored data were analyzed and expressed as time spent in each state per half hour. Sleep bout length and number of bouts for each state were calculated in hourly bins. […]

[5] = glaucoma patients; cited from earlier work
[6] = 24 months of treatment; patients; cited from earlier work

Row | SMILES | DOI-induced hypolocomotion (total rears over 10 minutes) [1] | test drug concentrations in plasma samples [2] | receptor occupancy at 0.5 mg/kg ([3]; read-out: 5HT2A receptor occupancy, 0.5 mg/kg i.v., 8 hours following drug administration, cortical regions) [%] | receptor occupancy at 0.5 mg/kg ([3]; read-out: 5HT2A receptor occupancy, 0.5 mg/kg i.v., 24 hours post-injection) [%] | NREMS bout length ([4]; 1.0 mg/kg, second hour) | REMS bout length ([4]; Compound 1 1.0 mg/kg, Compound 26 1.4 mg/kg, fourth hour) | delta power during NREMS ([4]; Compound 1 1.0 mg/kg, Compound 26 1.4 mg/kg, second hour following dosing (15:00), vs vehicle) | IOP [5] | urinary albumin excretion level [6]
1 | COc1ccc(NC(=O)Nc2ccc(Cl)cc2)cc1-c1c(Br)cnn1C [Compound 1, 1-[3-(4-Bromo-2-methyl-2H-pyrazol-3-yl)-4-methoxy-phenyl]-3-(4-Chloro-phenyl)-urea] | attenuated DOI-induced hypolocomotion | no measurable test drug concentrations | ~90 | ~80 | significantly increased | significantly increased | significantly increased | – | –
2 | COc1cccc(CCc2ccccc2OCC(CN(C)C)OC(=O)CCC(=O)O)c1 (stereo not drawn) [sarpogrelate] | – | – | – | – | – | – | – | significantly lower | significantly reduced
